Results from ChEMBL document CHEMBL1138246, “Ester prodrugs of cyclic 1-(S)-[3-hydroxy-2-(phosphonomethoxy)propyl]-5-azacytosine: synthesis and antiviral activity” (J Med Chem, 2007).
Converted amounts (≈) assume the structure as drawn.

Experiments:
CCRF-CEM = assay: Cytotoxicity against CEM cells assessed as cell growth after 3 days; type: functional; settings: Homo sapiens, 72 h
Vero = assay: Cytotoxicity against Vero cells assessed as alteration in morphology after 3 days; type: cell-based, Chlorocebus sabaeus; settings: Chlorocebus sabaeus, Vero, 72 h
Punta Toro virus = assay: Antiviral activity against Punta Toro virus in Vero cells reduction of virus-induced cytopathogenicity after 4 days; type: functional, organism-based; settings: 96 h
[1] = Cytotoxicity against C3H cells assessed as alteration in morphology after 3 days; type: cell-based, Mus musculus; settings: Mus musculus, C3H, 72 h
Human betaherpesvirus 5 [2] = type: functional, organism-based; settings: Human betaherpesvirus 5, AD169, HEL
HEL [3] = assay: Cytotoxicity against HEL cells assessed as alteration in morphology after 3 days; type: functional; settings: Homo sapiens, 72 h
[4] = tested on: Vesicular stomatitis virus; assay: microbe, parasite or virus in culture; settings: HeLa
[5] = tested on: Moloney murine sarcoma virus; settings: C3H
Human respirovirus 3 = assay: Antiviral activity against Parainfluenza 3 in Vero cells reduction of virus-induced cytopathogenicity after 4 days; type: functional, organism-based; settings: Human respirovirus 3, Vero, 96 h
[6] = tested on: Respiratory syncytial virus; type: functional, organism-based; settings: human respiratory syncytial virus, HeLa
Human alphaherpesvirus 3 [7] = type: functional, organism-based; settings: Human alphaherpesvirus 3, 07-1, HEL
Human adenovirus 2 = type: functional, organism-based; settings: Human mastadenovirus C, HEL
[8] = tested on: Vesicular stomatitis virus; assay: microbe, parasite or virus in culture; settings: HEL
[9] = tested on: Mammalian orthoreovirus 1; assay: Antiviral activity against Reovirus 1 in Vero cells reduction of virus-induced cytopathogenicity after 4 days; type: functional, organism-based; settings: Mammalian orthoreovirus 1, Vero, 96 h
Human alphaherpesvirus 2 [10] = type: functional, organism-based; settings: Human alphaherpesvirus 2, G, HEL
[11] = tested on: Human immunodeficiency virus 1; type: functional, organism-based; settings: Human immunodeficiency virus 1, 3B, CCRF-CEM, 96 h
HEL [12] = assay: Cytotoxicity against HEL cells assessed as cell growth after 3 days; type: functional, Homo sapiens; settings: Homo sapiens, HEL, 72 h; read-out: CC50
Coxsackievirus B4 [13] = type: functional, organism-based; settings: Enterovirus B, Vero
Coxsackievirus B4 [14] = type: functional, organism-based; settings: Enterovirus B, HeLa
[15] = tested on: Human immunodeficiency virus 2; type: functional, organism-based; settings: Human immunodeficiency virus 2, ROD, CCRF-CEM, 96 h
[16] = Cytotoxicity against HSB2 cells assessed as alteration in morphology after 3 days; type: functional, Homo sapiens, CCRF-HSB-2; settings: Homo sapiens, CCRF-HSB-2, 72 h; read-out: MCC
HeLa = assay: Cytotoxicity against HeLa cells assessed as alteration in morphology after 3 days; type: functional, cell-based; settings: Homo sapiens, 72 h
Human alphaherpesvirus 3 [17] = type: functional, organism-based; settings: Human alphaherpesvirus 3, OKA, HEL
Sindbis virus = assay: Antiviral activity against Sindbis virus in Vero cells reduction of virus-induced cytopathogenicity after 4 days; type: functional, organism-based; settings: 96 h
Human betaherpesvirus 5 [18] = type: functional, organism-based; settings: Human betaherpesvirus 5, Davis, HEL
Human alphaherpesvirus 2 [19] = type: functional, organism-based; settings: Human alphaherpesvirus 2, Lyons, HEL
MOLT-3 = assay: Cytotoxicity against MOLT3 cells assessed as alteration in morphology after 3 days; type: functional, Homo sapiens; settings: Homo sapiens, MOLT-3, 72 h; read-out: MCC

CCCCCCCCCCCCCCCCCCOP1(=O)CO[C@@H](Cn2cnc(N)nc2=O)CO1 (some centres not stated) gave a CC50 (CCRF-CEM) of 12 µg/mL (≈ 23.3 µM), an EC50 (Vero) of 40 µg/mL (≈ 77.7 µM) and an EC50 (Punta Toro virus) of over 8 µg/mL. It also gave an EC50 [1] of 20 µg/mL (≈ 38.9 µM), an EC50 (Human betaherpesvirus 5 [2]) of 0.0037 µg/mL (≈ 0.00719 µM) and an MCC (HEL [3]) of 8 µg/mL. The EC50 [4] was over 40 µg/mL, the EC50 [5] was over 4 µg/mL and the EC50 (Human respirovirus 3) was over 8 µg/mL. For the same molecule, the EC50 [6] was over 40 µg/mL, the EC50 (Human alphaherpesvirus 3 [7]) was 0.009 µg/mL (≈ 0.0175 µM) and the EC50 (Human adenovirus 2) was 0.051 µg/mL (≈ 0.0991 µM). For the same molecule, the EC50 [8] was over 1.6 µg/mL, the EC50 [9] was over 8 µg/mL and the EC50 (Human alphaherpesvirus 2 [10]) was 1.66 µg/mL (≈ 3.23 µM). For the same molecule, the EC50 [11] was over 20 µg/mL, the CC50 (HEL [12]) was over 100 µg/mL and the EC50 (Coxsackievirus B4 [13]) was over 8 µg/mL. For the same molecule, the EC50 (Coxsackievirus B4 [14]) was over 40 µg/mL, the EC50 [15] was over 20 µg/mL and the MCC [16] was at least 5 µg/mL. For the same molecule, the EC50 (HeLa) was 200 µg/mL (≈ 389 µM), the EC50 (Human alphaherpesvirus 3 [17]) was 0.04 µg/mL (≈ 0.0777 µM) and the EC50 (Sindbis virus) was over 8 µg/mL. For the same molecule, the EC50 (Human betaherpesvirus 5 [18]) was 0.0014 µg/mL (≈ 0.00272 µM), the EC50 (Human alphaherpesvirus 2 [19]) was 1.31 µg/mL (≈ 2.55 µM) and the MCC (MOLT-3) was 0.8 µg/mL.
